Assay results: US20210009613A1, “ARYLPHOSPHINE OXIDES FOR INHIBITING KINASE ACTIVITY” (Shenzhen TargetRx, Inc., priority 2017, published 2021)

Key:
[1] = biological target: ALK [WT] (Homo sapiens, UniProt Q9UM73); assay: Kinase inhibition assay, ALK [WT]; type: biochemical
Experimental: (§1) Compound preparation: The test compounds were dissolved in DMSO to make 20 mM stock solutions. The compounds were diluted in DMSO to 0.1 mM (a dilution with 100 times the final concentration) before use, and a 3-fold series gradient dilution with 11 concentrations was made. Dilutions with 4 times of the final concentration were prepared by diluting with buffer when dosing.
(§2) Kinase assay: after preparing the buffer solution, the enzyme was mixed with pre-diluted compounds with different concentrations, and placed at room temperature for 30 minutes in duplicate. The corresponding substrate and ATP were added thereto and reacted at room temperature for 60 minutes (both a negative and a positive control were set). After the reaction, antibody was added for detection, and after incubation at room temperature for 60 minutes, Evnvision detection was carried out, and data was collected. Data was analyzed and fit according to XLfit5 software. IC50 was calculated by the following formula: (IC50=[(ABS test-ABS begin)/(ABS control-ABS begin)]×100).

[2] = biological target: ALK [L1196M] (Homo sapiens, UniProt Q9UM73, L1196M); assay: Kinase inhibition assay, ALK [L1196M]; type: biochemical
Sequence of ALK [L1196M] (Q9UM73 19-1620 L1196M): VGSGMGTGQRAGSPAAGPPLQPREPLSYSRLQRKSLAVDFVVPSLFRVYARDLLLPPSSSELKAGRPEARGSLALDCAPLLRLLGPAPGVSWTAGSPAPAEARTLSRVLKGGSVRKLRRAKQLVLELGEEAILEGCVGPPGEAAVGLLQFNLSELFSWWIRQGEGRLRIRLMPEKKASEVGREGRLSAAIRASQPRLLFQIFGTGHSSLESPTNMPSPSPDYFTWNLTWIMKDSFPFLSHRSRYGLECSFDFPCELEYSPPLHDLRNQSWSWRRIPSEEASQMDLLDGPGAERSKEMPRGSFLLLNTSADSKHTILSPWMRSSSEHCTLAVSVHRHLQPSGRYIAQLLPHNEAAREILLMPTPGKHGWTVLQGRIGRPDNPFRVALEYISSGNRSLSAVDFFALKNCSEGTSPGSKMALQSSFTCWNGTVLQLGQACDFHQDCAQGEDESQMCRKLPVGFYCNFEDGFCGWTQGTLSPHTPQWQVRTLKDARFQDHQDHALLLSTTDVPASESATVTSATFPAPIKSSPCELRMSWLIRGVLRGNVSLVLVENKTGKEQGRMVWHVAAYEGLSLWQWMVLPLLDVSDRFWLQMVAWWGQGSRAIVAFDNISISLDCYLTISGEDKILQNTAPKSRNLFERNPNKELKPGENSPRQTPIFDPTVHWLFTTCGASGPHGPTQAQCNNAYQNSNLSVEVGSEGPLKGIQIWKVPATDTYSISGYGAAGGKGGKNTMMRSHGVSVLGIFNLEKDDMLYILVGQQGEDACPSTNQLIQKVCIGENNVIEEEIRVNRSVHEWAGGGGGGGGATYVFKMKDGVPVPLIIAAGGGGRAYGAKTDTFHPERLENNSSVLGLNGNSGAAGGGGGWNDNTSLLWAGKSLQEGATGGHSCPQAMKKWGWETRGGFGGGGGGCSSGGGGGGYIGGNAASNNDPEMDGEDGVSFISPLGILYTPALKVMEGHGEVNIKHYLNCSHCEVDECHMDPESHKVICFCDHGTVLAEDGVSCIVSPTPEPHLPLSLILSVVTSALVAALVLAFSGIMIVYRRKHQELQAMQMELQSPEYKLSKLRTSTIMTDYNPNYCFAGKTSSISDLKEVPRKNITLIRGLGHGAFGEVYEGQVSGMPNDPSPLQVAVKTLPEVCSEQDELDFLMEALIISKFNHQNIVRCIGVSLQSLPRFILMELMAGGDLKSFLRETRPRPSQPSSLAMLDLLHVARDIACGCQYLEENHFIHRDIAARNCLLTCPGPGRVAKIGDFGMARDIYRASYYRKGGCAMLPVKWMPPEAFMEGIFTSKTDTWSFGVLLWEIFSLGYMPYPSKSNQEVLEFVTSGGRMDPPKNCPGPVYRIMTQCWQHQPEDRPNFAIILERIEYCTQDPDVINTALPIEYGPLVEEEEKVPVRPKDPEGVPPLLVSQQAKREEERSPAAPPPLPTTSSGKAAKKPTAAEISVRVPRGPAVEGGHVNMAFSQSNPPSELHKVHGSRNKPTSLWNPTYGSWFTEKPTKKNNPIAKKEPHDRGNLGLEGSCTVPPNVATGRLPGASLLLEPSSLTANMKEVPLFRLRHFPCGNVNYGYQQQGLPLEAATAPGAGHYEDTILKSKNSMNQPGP
Experimental: as §1, §2

[3] = tested on: Ba/F3 parental; assay: Cytotoxicity test (CellTiter-Glo), Ba/F3 parental; type: cell-based; conditions: Mus musculus, BaF3, 72 hours
Experimental: (§3) The in vitro anti-proliferative activity of the compounds of the present disclosure against three types of cells that are cultured in vitro was tested by CellTiter-Glo method.
(§4) Cell lines: Ba/F3 parental; Ba/F3 [EML4-ALK] (From WuXi PharmaTech) and Ba/F3 [EML4-ALK L1196M] (From WuXi PharmaTech); wherein, Ba/F3 parental was cultured in RPMI1640 medium containing 10 ng/ml IL-3, […], 100 U/ml penicillin, and 100 μg/ml streptomycin, Ba/F3 [EML4-ALK] and Ba/F3 [EML4-ALK L1196M] were cultured in RPMI1640 medium containing 10% fetal bovine serum, 100 U/ml penicillin, and 100 μg/ml streptomycin.
(§5) Reagents and materials: RPMI-1640 (GIBCO, Cat. No. A10491-01); fetal bovine serum (GIBCO, Cat. No. 10099141); 0.25% trypsin-EDTA (GIBCO, Cat. No. 25200); penicillin-streptomycin, liquid (GIBCO, Cat. No. 15140-122); DMSO (Sigma, Cat. No. D2650); CellTiter-Glo Test Kit (Promega, Cat. No. G7572), and 96-well plate (Corning, Cat. No. 3365).
(§6) Specific experimental procedures: • 1. The test compounds were dissolved in DMSO to make stock solutions and subjected to a series gradient dilution to give solutions with 10-fold working concentration. • 2. The cells in the logarithmic growth phase were diluted with the culture solution to adjust to the specific cell concentration, 90 μl of cell suspension was added to the 96-well plate to make the cell density reach the specified concentration. The plate was incubated in a incubator at 37° C., containing 5% carbon dioxide gas overnight. • 3. 10 μl drug solutions were added to each well of the 96-well plate inoculated with cells. 10 concentrations of the compounds were tested starting from the highest concentration of 20 μM with a 3-fold series gradient dilution in duplicate. • 4. After continuously cultured for 72 hours, the cells were detected by CellTiter-Glo for the cell viability. The dose-effect curve was made using GraphPad Prism software and IC50 was calculated.

[4] = biological target: T1, Ba/F3 [EML4-ALK] (Homo sapiens, UniProt Q9UM73); assay: Cytotoxicity test (CellTiter-Glo), Ba/F3 [EML4-ALK]; type: cell-based; conditions: 72 hours, CellTiter-Glo; read-out: IC50(nM) ALK (Ba/F3)
T1 construct: IC50(nM) ALK (Ba/F3); other: 72 hours, CellTiter-Glo; Ba/F3 [EML4-ALK]; fused on or other part: Q9HC35 (Echinoderm microtubule-associated protein-like 4)
T1 sequence (Q9UM73 whole entry, change not shown, the tested form may be a part): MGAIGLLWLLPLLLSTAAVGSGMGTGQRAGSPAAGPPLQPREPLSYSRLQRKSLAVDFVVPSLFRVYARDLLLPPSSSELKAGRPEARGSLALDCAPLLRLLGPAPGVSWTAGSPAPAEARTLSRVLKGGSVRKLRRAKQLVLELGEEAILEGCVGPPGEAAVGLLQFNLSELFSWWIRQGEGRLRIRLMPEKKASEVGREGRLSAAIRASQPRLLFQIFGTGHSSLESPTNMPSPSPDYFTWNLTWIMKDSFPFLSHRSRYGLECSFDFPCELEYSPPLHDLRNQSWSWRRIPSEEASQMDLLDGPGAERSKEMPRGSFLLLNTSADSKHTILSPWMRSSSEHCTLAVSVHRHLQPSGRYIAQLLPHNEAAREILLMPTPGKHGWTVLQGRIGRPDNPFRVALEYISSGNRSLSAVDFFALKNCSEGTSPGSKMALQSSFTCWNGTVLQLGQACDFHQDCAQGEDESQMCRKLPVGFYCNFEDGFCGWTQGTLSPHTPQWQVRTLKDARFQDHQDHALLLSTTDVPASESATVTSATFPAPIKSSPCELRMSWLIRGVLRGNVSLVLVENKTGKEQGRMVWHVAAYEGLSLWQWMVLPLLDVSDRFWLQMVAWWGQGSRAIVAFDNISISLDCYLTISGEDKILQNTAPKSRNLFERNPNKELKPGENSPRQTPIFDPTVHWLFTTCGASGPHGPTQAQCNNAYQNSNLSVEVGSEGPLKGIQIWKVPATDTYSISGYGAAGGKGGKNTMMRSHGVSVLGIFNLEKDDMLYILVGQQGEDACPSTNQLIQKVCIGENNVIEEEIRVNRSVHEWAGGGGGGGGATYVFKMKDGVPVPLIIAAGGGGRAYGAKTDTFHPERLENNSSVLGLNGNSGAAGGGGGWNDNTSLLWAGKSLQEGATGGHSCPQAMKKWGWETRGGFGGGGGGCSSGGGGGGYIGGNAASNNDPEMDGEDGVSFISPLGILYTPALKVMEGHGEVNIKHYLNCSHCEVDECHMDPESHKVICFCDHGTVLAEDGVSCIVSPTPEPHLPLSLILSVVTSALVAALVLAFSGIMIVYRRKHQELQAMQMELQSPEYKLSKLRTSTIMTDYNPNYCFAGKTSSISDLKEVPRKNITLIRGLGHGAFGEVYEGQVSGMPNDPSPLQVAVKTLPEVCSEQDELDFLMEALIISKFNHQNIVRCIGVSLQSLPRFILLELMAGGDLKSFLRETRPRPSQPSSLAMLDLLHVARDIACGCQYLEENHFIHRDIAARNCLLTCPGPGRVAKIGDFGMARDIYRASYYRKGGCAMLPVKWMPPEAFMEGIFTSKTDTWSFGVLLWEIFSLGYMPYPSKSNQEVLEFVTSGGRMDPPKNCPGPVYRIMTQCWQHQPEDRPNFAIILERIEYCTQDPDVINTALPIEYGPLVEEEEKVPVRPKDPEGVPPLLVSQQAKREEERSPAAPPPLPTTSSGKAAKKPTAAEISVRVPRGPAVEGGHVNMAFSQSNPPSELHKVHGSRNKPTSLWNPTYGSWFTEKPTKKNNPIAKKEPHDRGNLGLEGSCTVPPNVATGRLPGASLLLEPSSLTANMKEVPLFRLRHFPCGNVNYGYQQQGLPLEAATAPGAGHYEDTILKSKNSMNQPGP
Experimental: as §3, §4, §5, §6

[5] = tested on: Ba/F3 [EML4-ALK]; assay: as above; type: cell-based; conditions: ratio of Ba/F3 IC50 values
Experimental: as §3, §4, §5, §6

[6] = biological target: T2, Ba/F3 [EML4-ALK L1196M] (Homo sapiens, UniProt Q9UM73, L1196M, cells depend on it); assay: Cytotoxicity test (CellTiter-Glo), Ba/F3 [EML4-ALK L1196M]; type: cell-based; conditions: 72 hours, CellTiter-Glo; read-out: IC50(nM) ALK[L1196M] (Ba/F3)
T2 construct: IC50(nM) ALK[L1196M]; (Ba/F3); other: 72 hours, CellTiter-Glo; Ba/F3 [EML4-ALK L1196M]; fused on or other part: Q9HC35 (Echinoderm microtubule-associated protein-like 4)
T2 sequence (Q9UM73 whole entry L1196M, the tested form may be a part): as the sequence (Q9UM73 whole entry, change not shown, the tested form may be a part) above, with L1196M counted along it
Experimental: as §3, §4, §5, §6

[7] = tested on: Ba/F3 [EML4-ALK L1196M]; assay: as above; type: cell-based; conditions: ratio of Ba/F3 IC50 values
Experimental: as §3, §4, §5, §6

Sequence of ALK [WT] (Q9UM73 19-1620): as the sequence (Q9UM73 19-1620 L1196M) above, with M1178L counted along it

Row | SMILES | IC50 [1] | IC50 [2] | IC50 [3] | GI50 [4] | Selectivity parental/ALK [5] | GI50 [6] | Selectivity parental/ALK[L1196M] [7]
1 | COc1nc(N2CCC(N(C)C)CC2)ccc1Nc1ncc(Cl)c(Nc2ccccc2P(C)(C)=O)n1 [Example 1, (2-((5-chloro-2-((6-(4-(dimethylamino)piperidin-1-yl)-2-methoxypyridin-3-)amino)pyrimidin-4-yl)amino)phenyl)dimethylphosphine oxide] | ≤ 5 nM | 5 to 10 nM | ≥ 1000 nM | ≤ 50 nM | 50~100 | 50 to 100 nM | 0~50
2 | COc1nc(N2CCN(C)CC2)ccc1Nc1ncc(Cl)c(Nc2ccccc2P(C)(C)=O)n1 [Example 2, (2-((5-chloro-2-((2-methoxy-6-(4-methylpiperazin-1-yl)pyridin-3-yl)amino)pyrimidin-4-yl)amino)phenyl)dimethylphosphine oxide] | ≤ 5 nM | ≤ 5 nM | ≥ 1000 nM | ≤ 50 nM | 50~100 | 50 to 100 nM | 0~50
3 | COc1nc(N(C)CCN(C)C)ccc1Nc1ncc(Cl)c(Nc2ccccc2P(C)(C)=O)n1 [Example 3, (2-((5-chloro-2-((6-((2-(dimethylamino)ethyl)(methyl)amino)-2-methoxypyridin-3-yl)amino)pyrimidin-4-yl)amino)phenyl)dimethylphosphine oxide] | ≤ 5 nM | 5 to 10 nM | ≥ 1000 nM | ≤ 50 nM | 100~200 | 50 to 100 nM | 50~100
4 | COc1nc(N2CCC(N3CCN(C)CC3)CC2)ccc1Nc1ncc(Cl)c(Nc2ccccc2P(C)(C)=O)n1 [Example 4, (2-((5-chloro-2-((2-methoxy-6-(4-(4-methylpiperazin-1-yl)piperidin-1-yl)pyridin-3-yl)amino)pyrimidin-4-yl)amino)phenyl)dimethylphosphine oxide] | 5 to 10 nM | 5 to 10 nM | ≥ 1000 nM | ≤ 50 nM | 50~100 | 50 to 100 nM | 0~50
5 | CC(C)Oc1nc(N2CCC(N(C)C)CC2)ccc1Nc1ncc(Cl)c(Nc2ccccc2P(C)(C)=O)n1 [Example 5, (2-((5-chloro-2-((6-(4-(dimethyaminono)piperidin-1-yl)-2-isopropoxypyridin-3-yl)amino)pyrimidin-4-yl)amino)phenyl)dimethylphosphine oxide] | 5 to 10 nM | ≤ 5 nM | ≥ 1000 nM | ≤ 50 nM | 100~200 | 50 to 100 nM | 50~100
6 | CC(C)Oc1nc(N2CCN(C)CC2)ccc1Nc1ncc(Cl)c(Nc2ccccc2P(C)(C)=O)n1 [Example 6, (2-((5-chloro-2-((2-isopropoxy-6-(4-methylpiperazin-1-yl)pyridin-3-yl)amino)pyrimidin-4-yl)amino)phenyl)dimethylphosphine oxide] | 5 to 10 nM | ≤ 5 nM | ≥ 1000 nM | ≤ 50 nM | 200~400 | 100 to 400 nM | 50~100

Now from value to molecule, other results behind:

Row | IC50 [1] | IC50 [2] | SMILES | IC50 [3] | GI50 [4] | Selectivity parental/ALK [5] | GI50 [6] | Selectivity parental/ALK[L1196M] [7]
7 | 10 to 50 nM | 5 to 10 nM | CC(C)Oc1nc(N(C)CCN(C)C)ccc1Nc1ncc(Cl)c(Nc2ccccc2P(C)(C)=O)n1 [Example 7, (2-((5-chloro-2-((6-((2-(dimethylamino)ethyl)(methyl)amino)-2-isopropoxypyridin-3-yl)amino)pyrimidin-4-yl)amino)phenyl)dimethylphosphine oxide] | ≥ 1000 nM | ≤ 50 nM | 200~400 | 50 to 100 nM | 50~100
8 | 5 to 10 nM | 5 to 10 nM | CC(C)Oc1nc(N2CCC(N3CCN(C)CC3)CC2)ccc1Nc1ncc(Cl)c(Nc2ccccc2P(C)(C)=O)n1 [Example 8, (2-((5-chloro-2-((2-isopropoxy-6-(4-(4-methylpiperazin-1-yl)piperidin-1-yl)pyridin-3-yl)amino)pyrimidin-4-yl)amino)phenyl)dimethyl phosphine oxide] | ≥ 1000 nM | ≤ 50 nM | 200~400 | 100 to 400 nM | 50~100
9 | ≤ 5 nM | 5 to 10 nM | CN(C)C1CCN(c2ccc(Nc3ncc(Cl)c(Nc4ccccc4P(C)(C)=O)n3)c(OCC(F)(F)F)n2)CC1 [Example 9, (2-((5-chloro-2-((6-(4-(dimethyaminono)piperidin-1-yl)-2-(2,2,2-trifluoroethoxy)pyridin-3-yl)amino)pyrimidin-4-yl)amino)phenyl)dimethylphosphine oxide] | ≥ 1000 nM | ≤ 50 nM | 200~400 | 50 to 100 nM | 50~100
10 | ≤ 5 nM | 5 to 10 nM | CN1CCN(c2ccc(Nc3ncc(Cl)c(Nc4ccccc4P(C)(C)=O)n3)c(OCC(F)(F)F)n2)CC1 [Example 10, (2-((5-chloro-2-((6-(4-methylpiperazin-1-yl)-2-(2,2,2-trifluoroethoxy)pyridin-3-yl)amino)pyrimidin-4-yl)amino)phenyl)dimethylphosphine oxide] | ≥ 1000 nM | ≤ 50 nM | 100~200 | 100 to 400 nM | 50~100
11 | ≤ 5 nM | 10 to 50 nM | CN(C)CCN(C)c1ccc(Nc2ncc(Cl)c(Nc3ccccc3P(C)(C)=O)n2)c(OCC(F)(F)F)n1 [Example 11, (2-((5-chloro-2-((6-((2-(dimethylamino)ethyl)(methyl)amino)-2-(2,2,2-trifluoroethoxy)pyridin-3-yl)amino)pyrimidin-4-yl)amino)phenyl)dimethylphosphine oxide] | ≥ 1000 nM | 50 to 100 nM | 100~200 | 100 to 400 nM | 50~100
12 | 5 to 10 nM | 10 to 50 nM | CN1CCN(C2CCN(c3ccc(Nc4ncc(Cl)c(Nc5ccccc5P(C)(C)=O)n4)c(OCC(F)(F)F)n3)CC2)CC1 [Example 12, (2-((5-chloro-2-((6-(4-(4-methylpiperazin-1-yl)piperidin-1-yl)-2-(2,2,2-trifluoroethoxy)pyridin-3-yl)amino)pyrimidin-4-yl)amino)phenyl)dimethylphosphine oxide] | ≥ 1000 nM | ≤ 50 nM | 111.30 | 50 to 100 nM | 0~50
13 | 5 to 10 nM | ≤ 5 nM | COc1nc(N2CCC(N(C)C)CC2)ccc1Nc1nc(Nc2ccccc2P(C)(C)=O)c2cc[nH]c2n1 [Example 13, (2-((2-((6-(4-(dimethylamino)piperidin-1-yl)-2-methoxypyridin-3-yl)amino)-7H-pyrrolo [2,3-d]pyrimidin-4-yl)amino)phenyl)dimethylphosphine oxide] | 400 to 1000 nM | ≤ 50 nM | 0~50 | 50 to 100 nM | 0~50
